Like-named read-outs stand apart in the source and are kept apart here.
Key:
[1] = system: male Sprague-Dawley CD rats; assay: Comparative oral toxicity in rats (inhibition of growth and lethality over two weeks); conditions: for Proportion of survivors, Day 6 / Proportion of survivors, Day 11: 25 μmole/day in corn oil with 4% chloroform; for Average weight, Day 6 / Average weight, Day 11: 25 μmole/day, initial weight 95-110 g; for Average weight, Day 6: Day 6, mean with standard deviation; for Average weight, Day 11: Day 11, mean with standard deviation
Protocol: 2. Comparative toxicity of all-E-N-(tetrazol-5-yl)-retinamide and 13-Z-N-(tetrazol-5-yl)-retinamide.
(a) Male Sprague-Dawley CD rats from Charles River (50-75 g) were randomized and weighed daily for one week before the start of the experiment. At the beginning of the toxicological screen the animals weighed 95-110 g.
(b) The vehicle for the test substances was corn oil containing 4% of chloroform. The dose was 25 μmole of test substance/day, in 0.5 ml of vehicle.

[2] = system: dorsal skin (erythema and scaling); design: species or system New Zealand white rabbit (male); conditions: rabbit, in vivo
Protocol: 4. Topical tolerance study of the test substances Six New Zealand white male rabbits were used in each study. Sites, each about 6 cm^2 in size, were shaved on the dorsal trunk of each test animal. The test substances were dissolved in a 70:30 volume/volume alcohol:propylene glycol mixture and 0.2 ml of the solution was applied topically from an automatic micropipette by gentle inunction to a pre-designated site twice daily, with an interval of six hours, for nine successive days. All sites were subjectively evaluated for erythema and scaling at the beginning of the test and before each morning application. A numerical grading scale of 0 to 3 was used (0=no reaction, 1=mild, 2=moderate, 3=severe).

[3] = system: comedones induced by coal tar (rabbit ear model); assay: Comedolytic activity in a rabbit ear model; assay type: in vivo, albino rabbit; conditions: topical, two weeks, decrease in comedones vs control ear
Protocol: Comedo formation was induced by topical application (0.5 ml), once daily, of 5% coal tar in Polyan® (an ester of lanolin alcohol and linoleic acid, from Amerchol Corp., USA) to both ears of albino rabbits on 5 successive days per week, for two weeks. Following this, the test substance, in a 70:30 volume/volume alcohol:propylene glycol mixture, was applied topically, in an amount of 0.5 ml, to the inner surface of one ear of each rabbit once daily on 5 consecutive days per week, for two weeks. The contra-lateral ear of each rabbit served as an untreated control.
Following a subsequent treatment (~72 hours) with the test substance, the rabbits were sacrificed. A sample of skin, of about 6 cm^2, was removed from the pinna of each ear just external to the auditory canal and was divided into pieces of about 1 cm^2.
These pieces of skin were immersed in water at 60° C. for 2 minutes. The epidermis was carefully peeled off using the flat end of a spatula and fine forceps, and was placed on a microscope slide, with the dermal side facing upward. After overnight airdrying, the slide was examined under the stereomicroscope. Follicular extensions of horny material remain intact. Comedones show up as discrete, uniformly shaped, cylindrical to global horny masses, whose size and number are proportional to the […].
The comedolytic effect was determined by the decrease in the number of comedones in comparison with the control ear.

[4] = system: keratinization of hamster tracheal epithelium (tracheal organ culture, vitamin A deficiency); assay: Reversal of keratinization in tracheal organ culture; assay type: cell-based; conditions: Mesocricetus auratus, 240 h, read-out: ED50 (molar dose effective in suppressing keratinization in one-half of the cultures)
Source text: This keratinization is inhibited, after initiation by chemical compounds, through the use of high energy radiation, or after viral cell transformation, through the use of the novel compounds of the formula (I). The method is described in Cancer Res. 36 (1976), 964-972, Nature 250 (1974), 64-66 and Nature 253 (1975), 47-50.
This assay measures the intrinsic ability of the novel compounds to control epithelial cell differentiation. The significant predictive value of this screening procedure for the potential use of a novel retinoid in the prevention of epithelial tissue tumors is generally accepted. At the same time it is known that any in vitro test system has disadvantages for the prediction of in vivo activity. Apart from these fundamental limitations, the tracheal organ culture assay is one of the most valuable procedures for evaluating the biological activity of a novel retinoid.
The assay procedure determines the ability of the two compounds to reverse keratinization in a defined in vitro system. Tracheas from hamsters in a very early stage of vitamin A deficiency were placed in organ culture. At that time, the animals were 29-30 days old (having been weaned at 21 days) and were still gaining some weight. Their average weight was 47-52 g. Their tracheal epithelium was generally low columnar or cuboidal, with only occasional patches of squamous metaplasia. Each trachea was opened from the larynx to the carina along the membranous dorsal wall and placed in culture in a serum-free medium (CMRL-1066 supplemented with crystalline bovine insulin, 1.0 μg/ml; hydrocortisone hemisuccinate, 0.1 μg/ml; glutamine, 2 mM; penicillin, 100 units/ml; and streptomycin, 100 μg/ml). The cultures were gassed with a mixture of 50% of oxygen, 45% of nitrogen and 5% of carbon dioxide. The culture dishes were rocked through 35.5-36.0 degrees to contact the tracheas with both gas and medium. All tracheas were maintained in medium containing no retinoid for the first 3 days. At the end of the 3 days, some tracheas were harvested. Almost all of these tracheas had significant squamous metaplasia. […]

[5] = system: the organism; conditions: in vivo; cited from earlier work
[6] = system: liver; conditions: use in therapy; cited from earlier work
[7] = hamster tracheal organ culture, serum-free medium, 10 days, extrapolated from dose-response curves

Compound | Proportion of survivors, Day 6 [1] | Proportion of survivors, Day 11 [1] | Average weight, Day 6 [1] | Average weight, Day 11 [1] | Rating erythema [2] | Rating scaling [2] | mean erythema [2] | mean scaling [2] | % comedolytic activity ([3]; 0.1% concentration) [%] | IC50 [4, 7] [nM] | % comedolytic activity ([3]; 0.025% concentration) [%] | toxic effects [5] | % comedolytic activity ([3]; 0.05% concentration) [%] | IC50 [4] [nM] | liver retinoid concentration and organ damage [6]
CC1=C(/C=C/C(C)=C/C=C/C(C)=C\C(=O)Nc2nnn[nH]2)C(C)(C)CCC1 [13-Z-N--(tetrazol-5-yl)-retinamide, 13-Z-N-(tetrazol-5-yl)-retinamide] | 2/5 | 2/5 | 122 ± 18 | 140 ± 27 | mild | none | 0.5 | 0.1 | 39.4 | 0.2 |  |  |  |  | 
CC1=C(/C=C/C(C)=C/C=C/C(C)=C\C(=O)O)C(C)(C)CCC1 [13-Z-retinoic acid, reference compound] |  |  |  |  | severe | severe | 3.0 | 3.0 |  |  |  |  |  |  | 
CC1=C(/C=C/C(C)=C/C=C/C(C)=C/C(=O)Nc2nnn[nH]2)C(C)(C)CCC1 [all-E-N--(tetrazol-5-yl)-retinamide, all-E-N-(tetrazol-5-yl)-retinamide] | 3/4 | 3/4 | 124 ± 6 | 155 ± 4 | mild | none | 0.8 | 0 |  | 0.1 | 35.1 |  |  |  | 
CC1=C(/C=C/C(C)=C/C=C/C(C)=C/C(=O)O)C(C)(C)CCC1 [all-E-retinoic acid, reference compound] | 3/5 | 0/5 | 95 ± 2 |  | moderate | moderate | 2.3 | 1.9 |  |  |  | even slightly increased doses cause severe damage to the organism, for example with symptoms of hypervitaminosis-A | 58.3 | 0.03 | 
CC1=C(/C=C/C(C)=C/C=C/C(C)=C/CO)C(C)(C)CCC1 [retinol] |  |  |  |  |  |  |  |  |  |  |  |  |  |  | intolerably high retinoid concentration in the liver leads to severe and irreversible damage to the organ
CC(=O)OC/C=C(C)/C=C/C=C(C)/C=C/C1=C(C)CCCC1(C)C [retinyl acetate] |  |  |  |  |  |  |  |  |  |  |  |  |  |  | intolerably high retinoid concentration in the liver leads to severe and irreversible damage to the organ

Source: patent US4459404A, “Amides of retinoic acids with 5-amino tetrazole” (BASF Aktiengesellschaft, priority 1980, dated 1984)
